The target in one assay is T1, TBK1 (Homo sapiens, UniProt Q9UHD2).
T1 construct: purchased Promega (Invitrogen is also named in the same bracket) V4158; PR8031B; V3991 (not assigned to the two kinases)
T1 sequence (Q9UHD2 1-729): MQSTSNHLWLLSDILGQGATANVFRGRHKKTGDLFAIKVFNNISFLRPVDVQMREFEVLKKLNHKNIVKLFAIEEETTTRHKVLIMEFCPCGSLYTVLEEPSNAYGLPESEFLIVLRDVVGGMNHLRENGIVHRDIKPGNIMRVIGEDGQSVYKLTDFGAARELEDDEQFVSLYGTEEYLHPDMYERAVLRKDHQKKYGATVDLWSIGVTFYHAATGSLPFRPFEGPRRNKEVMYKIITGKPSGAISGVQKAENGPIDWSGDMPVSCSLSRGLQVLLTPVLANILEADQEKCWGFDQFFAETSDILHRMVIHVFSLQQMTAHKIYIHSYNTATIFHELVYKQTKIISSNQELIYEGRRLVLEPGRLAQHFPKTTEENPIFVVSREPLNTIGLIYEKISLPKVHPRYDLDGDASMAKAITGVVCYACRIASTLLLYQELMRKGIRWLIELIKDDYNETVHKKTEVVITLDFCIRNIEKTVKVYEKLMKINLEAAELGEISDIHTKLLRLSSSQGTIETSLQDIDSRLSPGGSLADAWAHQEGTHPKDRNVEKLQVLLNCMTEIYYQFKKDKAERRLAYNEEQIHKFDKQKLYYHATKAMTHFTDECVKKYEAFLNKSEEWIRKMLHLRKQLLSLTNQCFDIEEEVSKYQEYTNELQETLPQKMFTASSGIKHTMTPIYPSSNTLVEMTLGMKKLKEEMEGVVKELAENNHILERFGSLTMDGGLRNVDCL
Nature of the assay: ADP-Glo Kinase Assay, inhibition activity on TBK1. In kind it is biochemical. An outline of the steps: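 In 40 mM Tris pH 7.5 with 20 mM MgCl2 and 0.1 mg/mL BSA, each enzyme (IKKε or TBK1 kinase system) was run according to the manufacturer's protocol. ADP formed was detected by ADP-Glo luminescence.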

The target of another assay is T2, IKKε (Homo sapiens, UniProt Q14164).
T2 construct: purchased Promega and/or Invitrogen V4158; PR8031B; V3991 (not assigned to the two kinases)
T2 sequence (Q14164 1-716): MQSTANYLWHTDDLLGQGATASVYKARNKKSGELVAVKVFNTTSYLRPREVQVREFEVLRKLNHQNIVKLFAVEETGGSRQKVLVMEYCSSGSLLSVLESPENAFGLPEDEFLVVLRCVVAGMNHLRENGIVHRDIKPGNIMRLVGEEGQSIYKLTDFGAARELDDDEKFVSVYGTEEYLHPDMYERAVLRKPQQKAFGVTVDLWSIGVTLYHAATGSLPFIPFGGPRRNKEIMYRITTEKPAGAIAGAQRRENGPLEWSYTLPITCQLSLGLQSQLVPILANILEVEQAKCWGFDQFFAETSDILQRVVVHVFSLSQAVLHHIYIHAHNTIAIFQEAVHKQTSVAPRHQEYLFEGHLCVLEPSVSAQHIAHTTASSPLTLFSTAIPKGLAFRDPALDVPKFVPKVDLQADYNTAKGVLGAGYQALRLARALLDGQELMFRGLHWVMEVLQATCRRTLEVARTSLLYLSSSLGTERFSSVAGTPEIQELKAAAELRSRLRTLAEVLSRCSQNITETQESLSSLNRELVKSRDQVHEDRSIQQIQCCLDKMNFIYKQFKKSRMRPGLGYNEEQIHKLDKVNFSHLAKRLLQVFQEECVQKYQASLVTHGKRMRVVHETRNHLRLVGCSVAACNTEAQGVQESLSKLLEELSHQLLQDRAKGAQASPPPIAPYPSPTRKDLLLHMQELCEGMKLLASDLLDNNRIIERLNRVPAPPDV
Nature of the assay: ADP-Glo Kinase Assay, inhibition activity on IKKε. Format: biochemical. As for the experimental part:
Inhibition activities on IKKϵ and TBK1 were evaluated using the compounds of Examples 1 to 250.
The inhibition activities on IKKϵ and TBK1 were measured by a luminometer, IKKϵ/TBK1 Kinase Enzyme System (Promega, Ca# V4158; Invitrogen, PR8031B, Promega, Ca# V3991) and ADP-Glo Kinase Assay using ADP-Glo™ Kinase Analysis Kit (Promega, Ca# V9101) and a kinase reaction buffer [40 mM Tris(pH 7.5), 20 mM MgCl2, 0.1 mg/mL BSA] in accordance with the manufacturer's protocol.
Background: ADP-Glo first removes unused ATP, then detects ADP through luciferase.

The term IC50 denotes the point on the concentration scale where inhibition reaches its midpoint. High values mean a need for much substance, low ones inhibition by little substance.

Consider `CC1C=C(c2c[nH]c3ncc(-c4ccc(CN5CCN(C)CC5)s4)cc23)CCN1C(=O)NC1CCCC1` (racemic) [Example 107, N-cyclopentyl-2-methyl-4-(5-(5-((4-methylpiperazin-1-yl)methyl)thiophen-2-yl)-1H-pyrrolo[2,3-b]pyridin-3-yl)-5,6-dihydropyridine-1(2H)-carboxamide], for which the IC50 against TBK1 was 0.0027 µM; on IKKε, 0.0032 µM.
For `CN1CC=C(c2c[nH]c3ncc(-c4ccc(CN5CCOCC5)s4)cc23)CC1` [Example 1, 4-((5-(3-(1-Methyl-1,2,3,6-tetrahydropyridin-4-yl)-1H-pyrrolo[2,3-b]pyridin-5-yl)thiophen-2-yl)methyl)morpholine] the same measures were 6.86 µM and > 10 µM.
`COc1ccc(-c2cnc3[nH]cc(C4=CCN(C)CC4)c3c2)cc1OC` [Example 2, 5-(3,4-Dimethoxyphenyl)-3-(1-methyl-1,2,3,6-tetrahydropyridin-4-yl)-1H-pyrrolo[2,3-b]pyridine]: the IC50 was 9.04 µM against TBK1 and > 10 µM on IKKε.
The matching figures for `CCN1CC=C(c2c[nH]c3ncc(-c4ccc(OC)c(OC)c4)cc23)CC1` [Example 3, 5-(3,4-Dimethoxyphenyl)-3-(1-ethyl-1,2,3,6-tetrahydropyridin-4-yl)-1H-pyrrolo[2,3-b]pyridine]: 5.93 µM and > 10 µM.
Turning to `CCCN1CC=C(c2c[nH]c3ncc(-c4ccc(OC)c(OC)c4)cc23)CC1` [Example 4, 5-(3,4-Dimethoxyphenyl)-3-(1-propyl-1,2,3,6-tetrahydropyridin-4-yl)-1H-pyrrolo[2,3-b]pyridine], the IC50 against TBK1 was found to be 3.23 µM; on IKKε, 5.14 µM.
The matching figures for `COc1ccc(-c2cnc3[nH]cc(C4=CCN(CC(C)C)CC4)c3c2)cc1OC` [Example 5, 5-(3,4-Dimethoxyphenyl)-3-(1-isobutyl-1,2,3,6-tetrahydropyridin-4-yl)-1H-pyrrolo[2,3-b]pyridine]: 1.56 µM and 2.75 µM.
The matching figures for `CCN1CC=C(c2c[nH]c3ncc(-c4ccc(CN5CCOCC5)s4)cc23)CC1` [Example 6, 4-((5-(3-(1-Ethyl-1,2,3,6-tetrahydropyridin-4-yl)-1H-pyrrolo[2,3-b]pyridin-5-yl)thiophen-2-yl)methyl)morpholine]: 4.08 µM and 8.9 µM.
For `CCCN1CC=C(c2c[nH]c3ncc(-c4ccc(CN5CCOCC5)s4)cc23)CC1` [Example 7, 4-((5-(3-(1-Propyl-1,2,3,6-tetrahydropyridin-4-yl)-1H-pyrrolo[2,3-b]pyridin-5-yl)thiophen-2-yl)methyl)morpholine] the same measures were 1.91 µM and 4.25 µM.
Turning to `CC(=O)N1CC=C(c2c[nH]c3ncc(-c4ccc(CN5CCOCC5)s4)cc23)CC1` [Example 8, 1-(4-(5-(5-(Morpholinomethyl)thiophen-2-yl)-1H-pyrrolo[2,3-b]pyridin-3-yl)-3,6-dihydropyridin-1(2H)-yl)ethan-1-one], the IC50 against TBK1 was determined as 0.14 µM; at IKKε it was 0.66 µM.
As to `CCCCC(=O)N1CC=C(c2c[nH]c3ncc(-c4ccc(CN5CCOCC5)s4)cc23)CC1` [Example 9, 1-(4-(5-(5-(Morpholinomethyl)thiophen-2-yl)-1H-pyrrolo[2,3-b]pyridin-3-yl)-3,6-dihydropyridin-1(2H)-yl)pentan-1-one], the IC50 is 0.33 µM against TBK1 and 0.51 µM against IKKε.
For `CC(C)CC(=O)N1CC=C(c2c[nH]c3ncc(-c4ccc(CN5CCOCC5)s4)cc23)CC1` [Example 10, 3-Methyl-1-(4-(5-(5-(morpholinomethyl)thiophen-2-yl)-1H-pyrrolo[2,3-b]pyridin-3-yl)-3,6-dihydropyridin-1(2H)-yl)butan-1-one] the same measures were 0.075 µM and 0.13 µM.
With `CC(C)NC(=O)N1CC=C(c2c[nH]c3ncc(-c4ccc(CN5CCOCC5)o4)cc23)CC1` [Example 36, N-isopropyl-4-(5-(5-(morpholinomethyl)furan-2-yl)-1H-pyrrolo[2,3-b]pyridin-3-yl)-5,6-dihydropyridine-1(2H)-carboxamide], the IC50 against IKKε worked out at 0.0093 µM.
Take `COc1ccc(-c2cnc3[nH]cc(C4=CCN(C(=O)OC(C)(C)C)CC4)c3c2)cc1OC` [Example 239, tert-butyl 4-(5-(3,4-dimethoxyphenyl)-1H-pyrrolo[2,3-b]pyridin-3-yl)-5,6-dihydropyridine-1(2H)-carboxylate]: on TBK1, it took 0.3 µM to reach half-maximal inhibition (IC50).
For the compound `CC(=O)Nc1cccc(-c2cnc3[nH]cc(C4=CCN(C(=O)OC(C)(C)C)CC4)c3c2)c1` [Example 240, tert-butyl 4-(5-(3-acetamidophenyl)-1H-pyrrolo[2,3-b]pyridin-3-yl)-5,6-dihydropyridine-1(2H)-carboxylate], the IC50 against TBK1 was 0.2 µM.
`CC(=O)Nc1ccc(-c2cnc3[nH]cc(C4=CCN(C(=O)OC(C)(C)C)CC4)c3c2)cc1` [Example 241, tert-butyl 4-(5-(4-acetamidophenyl)-1H-pyrrolo[2,3-b]pyridin-3-yl)-5,6-dihydropyridine-1(2H)-carboxylate] returned an IC50 at TBK1 of 0.17 µM.
`CCCOc1cccc(-c2cnc3[nH]cc(C4=CCN(C(=O)OC(C)(C)C)CC4)c3c2)c1` [Example 242, tert-butyl 4-(5-(3-propoxyphenyl)-1H-pyrrolo[2,3-b]pyridin-3-yl)-5,6-dihydropyridine-1(2H)-carboxylate] returned an IC50 against TBK1 of 1.3 µM.
Regarding `CCCOc1ccc(-c2cnc3[nH]cc(C4=CCN(C(=O)OC(C)(C)C)CC4)c3c2)cc1` [Example 243, tert-butyl 4-(5-(4-propoxyphenyl)-1H-pyrrolo[2,3-b]pyridin-3-yl)-5,6-dihydropyridine-1(2H)-carboxylate], at TBK1, the IC50 was 1.7 µM.
On to `COc1ccccc1-c1cnc2[nH]cc(C3=CCN(C(=O)OC(C)(C)C)CC3)c2c1` [Example 244, tert-butyl 4-(5-(2-methoxyphenyl)-1H-pyrrolo[2,3-b]pyridin-3-yl)-5,6-dihydropyridine-1(2H)-carboxylate], for which, on TBK1, 1.8 µM corresponded to half-maximal inhibition (IC50).
Turning to `COc1ccc(-c2cnc3[nH]cc(C4=CN(C(=O)OC(C)(C)C)CCC4)c3c2)cc1OC` [Example 245, tert-butyl 5-(5-(3,4-dimethoxyphenyl)-1H-pyrrolo[2,3-b]pyridin-3-yl)-3,4-dihydropyridine-1(2H)-carboxylate], 8.8 µM corresponded to half-maximal inhibition against TBK1 (IC50).
On the same count and under the same terms, in the case of `COc1ccc(-c2cnc3[nH]cc(-c4ccc(CC(=O)NC5CCCC5)cc4)c3c2)cc1OC` [Example 246, N-cyclopentyl-2-(4-(5-(3,4-dimethoxyphenyl)-1H-pyrrolo[2,3-b]pyridin-3-yl)phenyl)acetamide 2,2,2-trifluoroacetate] it was 4.1 µM.
On the same count and under the same terms, in the case of `O=C(O)Cc1ccc(-c2c[nH]c3ncc(-c4ccc(CN5CCOCC5)s4)cc23)cc1` [Example 247, 2-(4-(5-(5-(morpholinomethyl)thiophen-2-yl)-1H-pyrrolo[2,3-b]pyridin-3-yl)phenyl)acetic acid] it was 1.3 µM; in that of `O=C(Cc1ccc(-c2c[nH]c3ncc(-c4ccc(CN5CCOCC5)s4)cc23)cc1)NC1CCCC1` [Example 248, N-cyclopentyl-2-(4-(5-(5-(morpholinomethyl)thiophen-2-yl)-1H-pyrrolo[2,3-b]pyridin-3-yl)phenyl)acetamide 2,2,2-trifluoroacetate], 2.1 µM.

The record behind these values is patent US10239873B2, “7-azaindole or 4,7-diazaindole derivatives as IKKϵ epsilon and TBK1 inhibitor and pharmaceutical composition comprising same” (GREEN CROSS CORPORATION, priority 2015, dated 2019).
